Source: patent US20050106213A1, “Resorption-controlled bone implants” (priority 2001, published 2005)

Legend:
osteoclast proton pump = experiment: Calcibon cement rods doped with Panto IV implanted in femur of young Wistar rats, histology; type: in vivo, rat; conditions: 4 mg Panto IV per mL neutral phosphate solution per 500 mg Calcibon, 10 days
Method: Experiments with a commercially available proton pump inhibitor, sodium pantoprazole sold as Panto IV®, were performed in healthy young Wistar rats.
Although Panto IV is highly specific for the proton pumps of the parietal cells, it was hypothesized that it may non-specifically affect other proton pumps, including the osteoclast proton pump. A commercially available calcium phosphate material, Calcibon, was also used which is less resorbable than the previously used CAP to determine whether the strategy for stimulating local bone mass can be used with other materials.
The CAP material used was Calcibon provided by the Merck Biomaterials/Biomet company. The concentration used was 4 mg Panto IV per/mL of neutral phosphate solution per 500 mg of CAP powder used to prepare the cement. The cement doped with the PPI was then allowed to set, as described previously. The pre-set rods were implanted in young Wistar rats according to the same procedure as described previously.

osteoclasts [1] = experiment: CAP cement rods or pastes doped with Bafilomycin A1 implanted in rat femur defects, histology; type: in vivo
From the text: The calcium phosphate precursor powder consisted of an equimolar mixture of DCPA and TTCP sterilized by gamma irradiation (20 kGy). Deionized double distilled water was obtained from a Millipore Milli-RO 10 Plus and Mill-Q UF Plus systems (Bedford, Mass., USA) operated at 18 MΩ resistance. The liquid phase was a neutral sodium hydrogen phosphate solution at pH 7.4, which was sterilized by filtration through 0.22 μm filters (Millipore Corp., Bedford, Mass., USA).
(§1) Bafilomycin A1 was first dissolved in DMSO solution (other solutions that can be used are methanol and ethanol), and then dispersed in a neutral phosphate solution (pH 7.4) prepared from Na2HPO4 and NaH2PO4.
After Bafilomycin A1 was dispersed in the biphasic liquid phase, the liquid phase was added to one of the solid components of the CAP, dicalcium phosphate anhydrous (DCPA). The DCPA was dissolved in the liquid phase and left at room temperature for 2 min with continuous mixing.
Next, tetracalcium phosphate (TTCP) was gradually added to the first dissolved CAP component to produce a paste. The powder to liquid ratio (P/L) of the final CAP was 2.0 (wt/wt).
The pastes were either implanted or used for the preparation of rods. Cement rods (1.9 mm diameter×2.3 mm height) were shaped by allowing aliquots of packed CPC pastes to set in custom made Teflon® formers for 24 h at 37C and 100% humidity and subsequently for 48 h at room temperature.
Young male Wistar rats with an average body weight of 125-150 g were purchased from Charles River (QC, Canada), housed in light- and temperature-controlled rooms, and fed a standard diet. The maintenance and use of animals were in accordance with the Canadian Council of Animal Care Guidelines.
Bone defects were drilled in the mid-diaphysis of the femur. The holes were made using a low speed dental drill (2.3 mm in diameter) with copious saline irrigation. Pre-hardened CPC rods were placed into the holes using gentle pressure. Every rat received two implants, a control rod (paste) in one femur and a rod (paste) containing Bafilomycin A1 in another femur. The animals were observed daily throughout the implantation period.
After desired time in vivo, the animals were sacrificed, and the femurs were removed. The femurs were then exposed to a fixative solution for 48 h, decalcified in a 1:1 mixture of 45% formic acid and 20% sodium citrate, dehydrated and embedded in low-melting-point paraffin. Serial sections (6 μm thick) perpendicular to the long axis of the implant were obtained using a hard tissue Spencer 820 microtome. Sample sections were stained with hematoxylin-eosin (H&E) and Mason's trichrome stains. Representative sections were also tested for the presence of tartrate resistant acid phosphatase (TRAP) enzyme, characteristic of osteoclasts, to determine the identity of the cells at the material/bone interface.

osteoclasts [2] = experiment: Bafilomycin-doped CAP implant rods in ovariectomized aged rats (model of osteoporosis), histology; type: in vivo, rat; conditions: ovx aged Brown Norway rats, 75-100 μg per 500 mg CAP
Method: Performance of the bafilomycin-doped implant was also assessed in a model of osteoporosis which utilizes ovarectomized aged rats. Successful integration of osseous implants with host bone tissue can be adversely affected by pathological bone conditions such as osteoporosis, which result in osteopenia due to disturbance of the balance between bone resorption and bone formation processes. Therefore, systemic bone loss due to estrogen deficiency may also affect bone growth and maintenance around the implants. Although current attention has been focused in the art on systemic fracture prevention and development of new therapies aimed at conserving bone mass, little emphasis has been given to increasing osteointegration of implants in osteoporotic defect site.
The effects of ovariectomy on bone tissue formation and resorption of proton pump inhibitor (Bafilomycin A1)—modified resorbable CAP cement implants in comparison to the controls were studied.
Ten-month old ovariectomized (ovx) virgin Brown Norway rats with were purchased from the National Institute on Aging (Bethesda, Md., USA), housed individually in light- and temperature-controlled rooms, and fed a restricted diet (6 pellets/day). These animals were kept for additional four months following the ovariectomy. […]

osteoclasts [3] = experiment: Bafilomycin-doped CAP implant rods in young and non-ovx aged Brown Norway rats (comparison groups), histology; design: species or system rat; conditions: young control group and non-ovx aged group; observed even at 4 months in vivo
From the text: Ten-month old ovariectomized (ovx) virgin Brown Norway rats with were purchased from the National Institute on Aging (Bethesda, Md., USA), housed individually in light- and temperature-controlled rooms, and fed a restricted diet (6 pellets/day). These animals were kept for additional four months following the ovariectomy. Non-ovx virgin Brown Norway rats of the same age as the experimental rats at the time of implantation (fourteen months) were used as a control group for the ovx animals. Young virgin female Brown Norway rats (three months old) were used as another comparison group to assess the implant integration and resorption. The maintenance and use of animals were in accordance with the Canadian Council of Animal Care Guidelines.
Production of the CAP implant doped with bafilomycin was performed as described above, i.e., resorbable CAP based on the TTCP and DCPA chemistry. Bafilomycin in concentration of 75-100 μg per 250 μL of liquid neutral phosphate phase per 500 mg of CAP was used.
The implants were allowed to set to form pre-hardened implant rods. The implants were retrieved at 10 days, 1 month, 2 months, and 4 months post-surgery.

[4] = Solubility of Bafilomycin A1 in solvent for liquid phase preparation; type: physicochemical; conditions: at 2.0×10^−3 M
From the text: as §1

| SMILES | reparative bone mass surrounding the implant versus control (osteoclast proton pump) | control of CAP cement resorption (dose range study outcome) (osteoclasts [1]; 1.61×10^−4 M Bafilomycin A1 in liquid phase (DMSO solvent), rat femur implant) | amount of new bone surrounding the implant versus control cement (osteoclasts [1]; 1.61×10^−4 M, all specimens studied, young male Wistar rats) | resorption rate of CAP cement in comparison to controls (osteoclasts [1]; 1.61×10^−4 M, histology, young male Wistar rats) | formation of osteoclastic cutting cones into the material (osteoclasts [1]; 1.61×10^−4 M, tissue/material interface) | density of new bone surrounding the cement versus control (osteoclasts [1]; 1.61×10^−4 M, young male Wistar rats) | bone healing around the implant (osteoclasts [1]; highest concentration 2.0×10^−3 M Bafilomycin A1 in liquid phase (methanol solvent), rat femur implant) | response of CAP implanted as paste (resorption, new bone) (osteoclasts [1]; injectable paste, 14 days after implantation, rat femur) | histology / resorption of cement versus control (osteoclasts [1]; lowest concentration 1.61×10^−5 M Bafilomycin A1 in liquid phase (DMSO solvent), rat femur implant) | resorption of implant in comparison to control material (osteoclasts [2]; throughout 4-month in vivo period) | local bone mass around implant (osteoclasts [2]; up to 4 months) | bone formation around the material doped with PPI (trend) (osteoclasts [3]) | resorption of the material doped with PPI (trend) (osteoclasts [3]) | solubility in DMSO [4] |
| --- | --- | --- | --- | --- | --- | --- | --- | --- | --- | --- | --- | --- | --- | --- |
| COc1ccnc(Cc2nc3cc(OC(F)F)ccc3[nH]2)c1OC [Panto IV, 5-difluoromethoxy-2-[(3,4-dimethoxy-2-pyridinyl)methyl]-1H-benzimidazole] | surrounded by higher reparative bone mass than the control |  |  |  |  |  |  |  |  |  |  |  |  |  |
| CO/C1=C\C(C)=C\[C@@H](C)[C@@H](O)[C@@H](C)C/C(C)=C/C=C/[C@H](OC)[C@@H]([C@@H](C)[C@@H](O)[C@H](C)[C@@]2(O)C[C@@H](O)[C@H](C)[C@@H](C(C)C)O2)OC1=O [Bafilomycin A1] |  | found to work very well | consistently surrounded by more bone than the control cements | decreased the resorption rate | did not form “cutting cones” | appeared to be denser than the bone around the controls | the bone would not heal around the implant | showed the same response as that observed for the pre-set cements | did not differ in histology | reduction of the resorption | increased local bone mass | increased bone formation | reduced resorption | solubility of Bafilomycin A1 in DMSO was exceeded |
